Test results as given in patent US20140137274A1, “INDUCED MALIGNANT STEM CELLS” (LSIP, LLC, priority 2011, published 2014).

Tested on: cancer-related miRNAs
Assay: miRNA expression microarray (SurePrint G3 Human miRNA Microarray Rel.16.0)
Conditions: logarithmic (log2) value of quotient vs control
Procedure: Total RNA was prepared from each of six induced malignant stem cells, one induced non-malignant stem cell, and one induced pluripotent stem cell as mentioned above, and the prepared total RNAs were used in Agilent SurePrint G3 Human miRNA Microarray Rel.16.0 to detect abnormal expression (increased or reduced/lost expression) of non-coding RNAs such as endogenous cancer-related microRNAs in the induced malignant stem cells.
Complete Labeling Reagent and Hyb Kit in accordance with the Agilent protocol. To be specific, each sample total RNA (100 ng) was dephosphorylated with Calf Intestine Alkaline Phosphatase (CIP), and the RNA molecule on its 3′ terminal side was labeled with a cyanine 3-cytidine bisphosphate (pCp-Cy3) molecule using T4 RNA Ligase.
The RNA samples labeled in (14-2-3) were hybridized with SurePrint G3 Human miRNA Microarray Rel.16.0 using Agilent miRNA Complete Labeling Reagent and Hyb Kit. To be specific, each of the labeled RNAs was added to a hybridization buffer and allowed to hybridize on SurePrint G3 Human miRNA Microarray Rel.16.0 for 20 hours. After washing, the DNA microarray image was scanned by Agilent Microarray Scanner, and fluorescence signals from the spots were digitized by Feature Extraction Software (v.10.7.3.1).
The miRNAs were annotated using miRBase Release 18, and hybridization was performed onto a microarray chip with the probes designed for the miRNAs shown in the following table (refer to Table 31 below).
In this analysis, the normalized value of the digital data for the hybridization of a subject cell (induced malignant stem cell) sample was divided by the normalized value from the digital data for the hybridization of a control cell sample and the quotient was used as a measure of variation in expression. Probes for which the quotients deviated from 1 (i.e., log21=0) were considered to indicate a variation in expression; those showing quotients greater than 2 (log22=1) or smaller than 0.5 (log20.5=−1) were selected. For each of the comparisons shown below, the genes shown in the tyrosine kinase list and those shown in the cancer drug targets list were analyzed to make respective lists of the genes showing quotients greater than 2 (log22=1) or smaller than 0.5 (log20.5=−1), as compared with the quotient for the control (taken as 1). The analysis was performed using GeneSpring 12.1.
The Normalized column represents a variation in expression in logarithmic values.

Substance	Normalized (variation in microRNA expression, subject cell / control cell) ([gc1_6]vs [Ngc1_7])	Normalized (variation in microRNA expression, subject cell / control cell) ([Ngc1_7]vs [Nib2_17])	Normalized (variation in microRNA expression, subject cell / control cell) ([cc4_c]vs [Nfb2_17])	Normalized (variation in microRNA expression, subject cell / control cell) ([gc2_1]vs [Nfb2_17])	Normalized (variation in microRNA expression, subject cell / control cell) ([gc2_5]vs [Nfb2_17])	Normalized (variation in microRNA expression, subject cell / control cell) ([gc2_10]vs +Nfb2_17])	Normalized (variation in microRNA expression, subject cell / control cell) ([gcl_6]vs [Nfb2_17])
hsa-let-7d-5p (AACTATGCAACCTACTACC; chemistry not given here)	−1.545	–	–	–	–	–	–
hsa-miR-21-5p (TCAACATCAGTCTGATAAGC; chemistry not given here)	–	1.136	2.904	−6.311	−6.38	−5.844	–
hsa-miR-372 (ACGCTCAAATGTCGCAGC; chemistry not given here)	2.003	−3.388	–	–	–	–	−1.385
hsa-miR-17-5p (CTACCTGCACTGTAAGC; chemistry not given here)	–	–	–	−3.19	−3.466	–	–
hsa-let-7i-5p (AACAGCACAAACTACTACCTC; chemistry not given here)	−1.307	2.747	4.054	–	–	–	1.44
hsa-let-7c (AACCATACAACCTACTACC; chemistry not given here)	−1.801	2.65	–	–	–	–	–
hsa-miR-15a-5p (CACAAACCATTATGTGCTGCT; chemistry not given here)	–	–	1.163	–	–	–	–
hsa-let-7f-5p (AACTATACAATCTACTACCTC; chemistry not given here)	−1.421	–	5.523	–	–	–	–
